Results as given in PubChem BioAssay AID2060903 (Molecular Pharmacology Branch, DTP, NCI, 2025).
“And” between values parts separate entries of the source, which are not always exact repeats. Equal entries are not always repeated.

Test system: 377384-186-R-J1-PDC complex spheroid viability
Test: Anticancer human tumor 377384-186-R-J1-PDC patient-derived pancreatic carcinoma cell line growth inhibition [RAS]
Conditions: for viability, T/C: stronger effect = lower value
Text: RAS pathway inhibitors in Combinations in Complex Spheroids
A high-throughput screen of multi-cell type tumor spheroids was designed to identify active combinations of RAS pathway inhibitors and targeted small molecules. Complex spheroids include a stromal component modeled by human endothelial cells (HUVEC) and fibroblasts modeled by human mesenchymal stem cells (MSCs). The concentration ranges selected for each drug and investigational agent were based upon clinically achievable concentrations if the clinical Cmax of the agent was known.
Compounds. The drugs and investigational agents: abemaciclib (NSC768073), cobimetinib (NSC768068), divarasib (GDC6063, NSC841802), docetaxel (NSC628503), GDC-1971 (RLY-1971, NSC841576), gemcitabine (NSC613327), inavolisib (NSC800729), ipatasertib (NSC767898), KB-0742 (NSC834161), MRTX-1133 (NSC836407), osimertinib (NSC779217), RMC-4630 (NSC839698), RMC-6236 (NSC851965), RMC-6291 (NSC852671), Ro-3306 (NSC812927), sapanisertib (NSC764658), SN-38 (NSC673596), staurosporine (NSC755774), SY5609 (NSC837396), and tovorafenib (DAY101, NSC766906), were obtained from the National Cancer Institute (NCI) Developmental Therapeutics Program Chemical Repository. The FDA-approved anticancer drug set is available from the NCI Developmental Therapeutics Program. […] The stock solutions were prepared in dimethyl sulfoxide (DMSO, Sigma-Aldrich, St. Louis, MO, cat. D2650) at 800-fold the tested concentration and stored at -70 degrees C prior to their use. All drugs and investigational agents were tested over a range starting from a high concentration at or near the clinical Cmax and decreasing in half-log increments. If the clinical Cmax for an agent had not been determined, the highest concentration tested was 10 microM.
Cell Culture. All cells were maintained in an incubator at 37 degrees C and 5% CO2 with 95% humidity. The PDC lines were cultured according to standard operating procedures established by the NCI PDMR. All PDCs were thawed and cultured in Matrigel-coated flasks prepared with a working solution of 1X Ham's F-12 nutrient mix, without supplementation (Invitrogen, Waltham, MA, cat. 11765054), 100 U/mL penicillin-streptomycin (Invitrogen, cat. 15140122), and 2.5% Matrigel (Corning Inc., Corning, NY, cat. 354248) for the first three passages. The 362531-283-R-J2-PDC and 782815-120-R-J1-PDC lines were cultured in 6C/Colon 1B media, which includes advanced DMEM/F-12 (Thermo Fisher Scientific, cat. 12634028), 10 mM HEPES (Thermo Fisher Scientific, cat. 15630080), 1X GlutaMAX supplement (Thermo Fisher Scientific, cat. 35050061), 0.1 mg/mL primocin (InvivoGen, San Diego, CA, cat. ant-pm-2), 10% defined fetal bovine serum, heat inactivated (HyClone Laboratories Inc., Logan, UT, cat. SH30070.03HI), 50% L-WRN conditioned media (ATCC, cat. CRL-3276), 1.25 mM N-Acetyl-L-cysteine (Sigma-Aldrich, cat. A9165), 10 mM nicotinamide (Sigma-Aldrich, cat. N0636), 1X B-27 supplement (Thermo Fisher Scientific, cat. 17504044), 1X N-2 supplement (Thermo Fisher Scientific, cat. 17502048), 50 ng/mL human EGF (Thermo Fisher Scientific, cat. PHG0311), and 10 microM Y-27632 dihydrochloride (Tocris Bioscience, cat. 1254). The K12877-001-R-J1-PDC line was cultured in 6I media, which includes all 6C/Colon 1B media plus 10 ng/mL human FGF-10 (PeproTech, cat. 100-26), 1 ng/mL human FGF-2 (PeproTech, cat. 100-18B), 1 µM prostaglandin E2 (Tocris Bioscience, cat. 2296), […] hydrocortisone (Sigma-Aldrich, cat. H4001), and […] bovine insulin (Sigma-Aldrich, cat. I6634). The K86415-001-R-J1-PDC line was cultured in 6D media, which includes all 6C/Colon 1B media components minus the L-WRN conditioned media. The 485176-168-R4-J1-PDC was cultured in PANC media, which includes all 6C/Colon 1B media plus 100 ng/mL human FGF-10 (PeproTech, cat. 100-26), 500 nM SB-431542 (Selleckchem, cat. S1067), and 10 nM gastrin (Tocris Bioscience, cat. 3006). […]

[1] = compound alone, run of 09/09/2024
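Note: spheroids exposed to compounds for seven days before readout.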

With `C#Cc1c(F)ccc2cc(O)cc(-c3ncc4c(N5CC6CCC(C5)N6)nc(OCC56CCCN5CC(F)C6)nc4c3F)c12` (stereo not given) as the molecule, how does the viability, T/C (compound 0.0316 µM) read?
Its viability, T/C is 25.6% [middle of 8 runs].

And the viability, T/C (compound 0.1 µM)?
Its viability, T/C is 11.4% [middle of 8 runs].

What about the viability, T/C (compound 0.316 µM) of the same molecule?
The viability, T/C was 4.64% [middle of 8 runs].

What about the viability, T/C (compound 1 µM) of the same molecule?
Its viability, T/C is 3.15% [middle of 8 runs].

What about the viability, T/C (compound 3.16 µM) of the same molecule?
Its viability, T/C is 2.31% [middle of 8 runs].

And the viability, T/C (compound 10 µM)?
The viability, T/C was 1.33% [middle of 8 runs].

What about the IC50 [1] of the same molecule?
Its IC50 is less than 31.6 nM.

How did the viability, T/C (compound 0.00316 µM) turn out when `C=CC(=O)N1CCN(c2nc(OCC3CCCN3C)nc3c(F)c(-c4nc(N)cc(C)c4C(F)(F)F)c(Cl)cc23)C(C)C1` (stereo not given) was run?
Its viability, T/C is 96.1% [middle of 12 runs].

What about the viability, T/C (compound 0.0316 µM) of the same molecule?
The viability, T/C was 95.5% [middle of 12 runs].

What about the viability, T/C (compound 1 µM) of the same molecule?
Its viability, T/C is 96.5% [middle of 12 runs].

And the IC50 [1]?
The IC50 was greater than 1000 nM.

And the IC50 (curve of compound)?
Its IC50 is greater than 1000 nM.

Which results are given for `C=CC(=O)Nc1cc(Nc2nccc(-c3cn(C)c4ccccc34)n2)c(OC)cc1N(C)CCN(C)C`?
viability, T/C (compound 0.00316 µM): 95.6% [middle of 4 runs]; viability, T/C (compound 0.01 µM): 97.8% [middle of 4 runs]; viability, T/C (compound 0.0316 µM): 92.6% [middle of 4 runs]; viability, T/C (compound 0.1 µM): 87.7% [middle of 4 runs]; viability, T/C (compound 0.316 µM): 64.9% [middle of 4 runs]; viability, T/C (compound 1 µM): 40.4% [middle of 4 runs]; IC50 (curve of compound): 639 nM [middle of 4 runs]

What does the source list for `CC(C)n1nc(-c2ccc3oc(N)nc3c2)c2c(N)ncnc21`?
viability, T/C (compound 0.001 µM): 80.6% [middle of 4 runs]; viability, T/C (compound 0.00316 µM): 69% [middle of 4 runs]; viability, T/C (compound 0.01 µM): 61.9% [middle of 4 runs]; viability, T/C (compound 0.0316 µM): 34.8% [middle of 4 runs]

For `CC(Nc1ccc2c(c1)OCCn1cc(N3C(=O)OCC3C(F)F)nc1-2)C(N)=O` (stereo not given), which viability, T/C (compound 0.0316 µM) is on record?
The viability, T/C was 76% [middle of 4 runs].

What about the viability, T/C (compound 0.1 µM) of the same molecule?
Its viability, T/C is 63.8% [middle of 4 runs].

What about the viability, T/C (compound 0.316 µM) of the same molecule?
The viability, T/C was 55.8% [middle of 4 runs].

And the viability, T/C (compound 1 µM)?
The viability, T/C was 47.9% and 40.3% (2×) and 48.2%.

What about the viability, T/C (compound 3.16 µM) of the same molecule?
The viability, T/C was 33.7% [middle of 4 runs].

And the viability, T/C (compound 10 µM)?
Its viability, T/C is 30.7% [middle of 4 runs].

And the IC50 (curve of compound)?
The IC50 was 476 nM [middle of 4 runs].

`CC1(C)CCC(Nc2ncc(C(F)(F)F)c(-c3c[nH]c4c(P(C)(C)=O)c(C#N)ccc34)n2)CN1` (stereo not given) was tested. Which viability, T/C (compound 0.000949 µM) did it give?
Its viability, T/C is 84% [middle of 4 runs].

And the viability, T/C (compound 0.003 µM)?
Its viability, T/C is 59.5% [middle of 4 runs].

And the viability, T/C (compound 0.00949 µM)?
The viability, T/C was 30% [middle of 4 runs].

And the viability, T/C (compound 0.03 µM)?
The viability, T/C was 21.3% [middle of 4 runs].

What about the viability, T/C (compound 0.0949 µM) of the same molecule?
Its viability, T/C is 16.6% [middle of 4 runs].

What about the viability, T/C (compound 0.3 µM) of the same molecule?
Its viability, T/C is 16.1% [middle of 4 runs].

What about the IC50 (curve of compound) of the same molecule?
The IC50 was 4.35 nM [middle of 4 runs].

With `CC1(O)CCCC1n1c(=O)c(C(F)F)cc2cnc(NC3CCN(S(C)(=O)=O)CC3)nc21` (stereo not given) as the molecule, how does the viability, T/C (compound 0.0316 µM) read?
Its viability, T/C is 77.2% [middle of 4 runs].

And the viability, T/C (compound 0.1 µM)?
The viability, T/C was 50% [middle of 4 runs].

And the viability, T/C (compound 0.316 µM)?
The viability, T/C was 21.1% [middle of 4 runs].

And the viability, T/C (compound 1 µM)?
The viability, T/C was 25.5% [middle of 4 runs].

What about the viability, T/C (compound 3.16 µM) of the same molecule?
Its viability, T/C is 34.8% [middle of 4 runs].

What about the viability, T/C (compound 10 µM) of the same molecule?
Its viability, T/C is 6.6% [middle of 4 runs].

What about the IC50 (curve of compound) of the same molecule?
Its IC50 is 100 nM [middle of 4 runs].

What does the source list for `CCC(CC)c1cc(NC2CCC(N)C2)n2nccc2n1` (stereo not given)?
viability, T/C (compound 0.0316 µM): 100% [middle of 4 runs]; viability, T/C (compound 0.1 µM): 105% [middle of 4 runs]; viability, T/C (compound 0.316 µM): 105% [middle of 4 runs]; viability, T/C (compound 3.16 µM): 3.17% [middle of 4 runs]; viability, T/C (compound 10 µM): 4.82% [middle of 4 runs]; IC50 (curve of compound): 1.68 µM [middle of 4 runs]
